Patent US12226424B2, “Target protein degradation compounds, their anti-tumor use, their intermediates and use of intermediates” (ShanghaiTech University, priority 2018, dated 2025)
Read-outs that look alike come from different tables or passages of the source.

Key:
SR cells = assay: Half inhibitory concentration (IC50) on ALK-positive SR cell proliferation (CCK-8); format: cell-based; details: Homo sapiens; SR cells, 72 h drug treatment, CCK-8; read-out: IC50 (nM)/ SR cell line
Procedure: (§1) ALK-positive SR cells (human large cell immunoblastic lymphoma) were purchased from the American Type Culture Collection (ATCC); H3122 cells (human non-small cell lung cancer) were from the Shanghai University of Science and Technology Lin Haifan's research group.
(§2) The cells used in this present disclosure were cultured in a 37° C. incubator containing 5% CO2.
SR cells were seeded in 100 μL RPMI1640 complete medium at a density of 10,000 cells/well. 100 μL of the inoculated cells were treated with 0.5 μL diluted PROTAD compound of the present disclosure to be tested at 10 successively decreasing concentrations (starting at the highest concentration of 10 μM; 5-fold serial dilutions) After the cells were treated with the drug for 72 h, cell viability was determined according to the CCK-8 reagent operating instructions. The negative control was DMSO, and the positive control was a commercial inhibitor. After CCK-8 treatment for 2 h, the value of O.D.450 was measured using a microplate reader.

ALK protein = ALK protein (Homo sapiens, UniProt Q9UM73); assay: Western-blot half degradation concentration (DC50) of ALK protein in H3122 cells; format: cell-based; details: 24 h drug treatment, read-out: DC50 (nM)/ H3122 cell line
ALK protein, sequence (Q9UM73 with tags, fused parts or gaps): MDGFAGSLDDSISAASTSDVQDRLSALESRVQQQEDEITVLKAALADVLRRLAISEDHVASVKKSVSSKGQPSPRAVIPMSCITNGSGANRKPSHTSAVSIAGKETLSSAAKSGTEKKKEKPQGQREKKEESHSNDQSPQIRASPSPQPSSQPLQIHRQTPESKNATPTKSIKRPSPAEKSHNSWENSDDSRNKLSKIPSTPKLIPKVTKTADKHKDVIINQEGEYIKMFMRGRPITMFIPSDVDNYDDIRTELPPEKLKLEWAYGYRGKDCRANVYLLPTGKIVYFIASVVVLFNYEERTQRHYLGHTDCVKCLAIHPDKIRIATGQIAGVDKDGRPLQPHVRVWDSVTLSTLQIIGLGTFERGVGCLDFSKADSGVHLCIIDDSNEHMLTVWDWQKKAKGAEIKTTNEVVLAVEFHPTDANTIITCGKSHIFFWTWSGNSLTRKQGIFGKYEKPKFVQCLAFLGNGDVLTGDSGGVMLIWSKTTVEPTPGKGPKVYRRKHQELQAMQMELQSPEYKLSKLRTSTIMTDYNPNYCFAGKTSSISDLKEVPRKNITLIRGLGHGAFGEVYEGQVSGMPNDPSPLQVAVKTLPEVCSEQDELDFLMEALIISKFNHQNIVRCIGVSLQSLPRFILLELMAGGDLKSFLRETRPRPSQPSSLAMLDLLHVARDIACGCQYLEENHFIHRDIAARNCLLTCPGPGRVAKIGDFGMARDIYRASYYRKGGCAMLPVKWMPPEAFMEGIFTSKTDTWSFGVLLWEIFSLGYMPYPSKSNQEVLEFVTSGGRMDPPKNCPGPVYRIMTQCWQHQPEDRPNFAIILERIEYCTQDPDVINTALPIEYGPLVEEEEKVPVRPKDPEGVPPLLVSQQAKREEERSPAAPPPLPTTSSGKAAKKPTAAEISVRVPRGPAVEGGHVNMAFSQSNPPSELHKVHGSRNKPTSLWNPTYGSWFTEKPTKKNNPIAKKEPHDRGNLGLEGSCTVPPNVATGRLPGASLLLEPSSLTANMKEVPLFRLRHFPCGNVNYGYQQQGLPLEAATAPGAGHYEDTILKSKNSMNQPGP
Procedure: as §1, §2
DC50 (drug concentration corresponding to protein degradation to 50%) calculation: according to the gray value of the corresponding Western blotting band after drug treatment, fitting the relationship curve between drug concentration and gray value to calculate the drug concentration range corresponding to half of the gray value.

MV-4-11 cells = assay: Half inhibitory concentration (IC50) on BET-expressing tumor cells, CCK-8, MV-4-11
[1] = test system: K562 cells (BCR-ABL positive); assay: Half inhibitory concentration (IC50) on tumor cells, CCK-8, K562; details: Homo sapiens, K562, 48 h, read-out: IC50 (nM)/K562 cell line
Procedure: Determination of Half Inhibitory Concentration (IC50) of PROTAD Compounds on Tumor Cells
K562 cells were seeded in 100 μL of RPMI1640 complete medium at a density of 20,000 cells/well. 100 μL of the inoculated cells were treated with 100 μL diluted PROTAD compound of the present disclosure to be tested at 9 successively decreasing concentrations (starting at the highest concentration of 10 μM; 3-fold serial dilutions). After the cells were treated with the tested drugs for 48 hours, the cell viability determination was performed in accordance with CCK-8 reagent operating instructions. The negative control was DMSO, and positive control was a commercial inhibitor. After CCK-8 treatment for 2 h, the value of O.D.450 was measured using a microplate reader.

[2] = Homo sapiens, MV4-11, read-out: IC50 (nM)/MV-4-11 cell line, MV-4-11 cells, 48/72 h, CCK-8
[3] = read-out: IC50 (nM)/MV-4-11 cell line, MV-4-11 cells, 48/72 h, CCK-8

SMILES | DC50 (ALK protein) [nM] | IC50 (MV-4-11 cells; [2]) [nM] | further results
Cc1sc2c(c1C)C(c1ccc(Cl)cc1)=N[C@@H](CC(=O)NCCN1CCN(CCCCSc3cccc4c3CN(C3CCC(=O)NC3=O)C4=O)CC1)c1nnc(C)n1-2 (stereo partly drawn) [SIAIS213139, 2-((S)-4-(4-chlorophenyl)-2,3,9-trimethyl-6H-thieno[3,2-f][1,2,4]triazolo[4,3-a][1,4]diazepin-6-yl)-N-(2-(4-(4-((2-(2,6-dioxopiperidin-3-yl)-1-oxoisoindolin-4-yl)thio)butyl)piperazin-1-yl)ethyl)acetamide] | – | 0.027 ± 0.006 | –
COc1cc(N2CCC(NC(=O)CCCSc3cccc4c3C(=O)N(C3CCC(=O)NC3=O)C4=O)CC2)ccc1Nc1ncc(Cl)c(Nc2ccccc2P(C)(C)=O)n1 (centres unmarked) [SIAIS164139, N-(1-(4-((5-chloro-4-((2-(dimethylphosphoryl)phenyl)amino)pyrimidin-2-yl)amino)-3-methoxyphenyl)piperidin-4-yl)-4-((2-(2,6-dioxopiperidin-3-yl)-1,3-dioxoisoindolin-4-yl)thio)butanamide] | 500 | – | IC50 (SR cells): 11.6 ± 6 nM
CCc1cc2c(cc1N1CCN(C(=O)CSc3cccc4c3C(=O)N(C3CCC(=O)NC3=O)C4=O)CC1)C(C)(C)c1[nH]c3cc(C#N)ccc3c1C2=O (centres unmarked) [SIAIS164068, 8-(4-(2-((2-(2,6-dioxopiperidin-3-yl)-1,3-dioxoisoindolin-4-yl)thio)acetyl)piperazin-1-yl)-9-ethyl-6,6-dimethyl-11-oxo-6,11-dihydro-5H-benzo[b]carbazole-3-carbonitrile] | 104 | – | –
CCc1cc2c(cc1N1CCN(C(=O)CCCCCCSc3cccc4c3C(=O)N(C3CCC(=O)NC3=O)C4=O)CC1)C(C)(C)c1[nH]c3cc(C#N)ccc3c1C2=O (centres unmarked) [SIAIS164073, 8-(4-(7-((2-(2,6-dioxopiperidin-3-yl)-1,3-dioxoisoindolin-4-yl)thio)heptanoyl)piperazin-1-yl)-9-ethyl-6,6-dimethyl-11-oxo-6,11-dihydro-5H-benzo[b]carbazole-3-carbonitrile] | 100 to 500 | – | –
Cc1sc2c(c1C)C(c1ccc(Cl)cc1)=N[C@@H](CC(=O)N1CCN(CCCCSc3cccc4c3CN(C3CCC(=O)NC3=O)C4=O)CC1)c1nnc(C)n1-2 (stereo partly drawn) [SIAIS213138, 3-(4-((4-(4-(2-((S)-4-(4-chlorophenyl)-2,3,9-trimethyl-6H-thieno[3,2-f][1,2,4]triazolo[4,3-a][1,4]diazepin-6-yl)acetyl)piperazin-1-yl)butyl)thio)-1-oxoisoindolin-2-yl)piperidine-2,6-dione] | – | 0.084 | IC50 (MV-4-11 cells; [3]): 0.051 nM
Cc1sc2c(c1C)C(c1ccc(Cl)cc1)=N[C@@H](CC(=O)NCCOCCSc1cccc3c1CN(C1CCC(=O)NC1=O)C3=O)c1nnc(C)n1-2 (stereo partly drawn) [SIAIS213100, 2-((S)-4-(4-chlorophenyl)-2,3,9-trimethyl-6H-thieno[3,2-f][1,2,4]triazolo[4,3-a][1,4]diazepin-6-yl)-N-(2-(2-((2-(2,6-dioxopiperidin-3-yl)-1-oxoisoindolin-4-yl)thio)ethoxy)ethyl)acetamide] | – | 0.5 ± 0.1 | –
Cc1sc2c(c1C)C(c1ccc(Cl)cc1)=N[C@@H](CC(=O)NCCN1CCN(CCCSc3cccc4c3CN(C3CCC(=O)NC3=O)C4=O)CC1)c1nnc(C)n1-2 (stereo partly drawn) [SIAIS213136, 2-((S)-4-(4-chlorophenyl)-2,3,9-trimethyl-6H-thieno[3,2-f][1,2,4]triazolo[4,3-a][1,4]diazepin-6-yl)-N-(2-(4-(3-((2-(2,6-dioxopiperidin-3-yl)-1-oxoisoindolin-4-yl)thio)propyl)piperazin-1-yl)ethyl)acetamide] | – | 0.068 | IC50 (MV-4-11 cells; [3]): 0.04 nM
Cc1sc2c(c1C)C(c1ccc(Cl)cc1)=N[C@@H](CC(=O)N1CCN(CCCSc3cccc4c3CN(C3CCC(=O)NC3=O)C4=O)CC1)c1nnc(C)n1-2 (stereo partly drawn) [SIAIS213117, 3-(4-((3-(4-(2-((S)-4-(4-chlorophenyl)-2,3,9-trimethyl-6H-thieno[3,2-f][1,2,4]triazolo[4,3-a][1,4]diazepin-6-yl)acetyl)piperazin-1-yl)propyl)thio)-1-oxoisoindolin-2-yl)piperidine-2,6-dione] | – | 0.063 | IC50 (MV-4-11 cells; [3]): 0.041 nM
Cc1sc2c(c1C)C(c1ccc(Cl)cc1)=N[C@@H](CC(=O)NCCN1CCNCC1)c1nnc(C)n1-2 [SIAIS213130] | – | 29.8 | IC50 (MV-4-11 cells; [3]): 17.7 nM
CCc1cc2c(cc1N1CCN(C(=O)CCSc3cccc4c3C(=O)N(C3CCC(=O)NC3=O)C4=O)CC1)C(C)(C)c1[nH]c3cc(C#N)ccc3c1C2=O (centres unmarked) [SIAIS164069, 8-(4-(3-((2-(2,6-dioxopiperidin-3-yl)-1,3-dioxoisoindolin-4-yl)thio)propanoyl)piperazin-1-yl)-9-ethyl-6,6-dimethyl-11-oxo-6,11-dihydro-5H-benzo[b]carbazole-3-carbonitrile] | 100 to 500 | – | –
Cc1nc(Nc2ncc(C(=O)Nc3c(C)cccc3Cl)s2)cc(N2CCN(CCCSc3cccc4c3CN(C3CCC(=O)NC3=O)C4=O)CC2)n1 (centres unmarked) [SIAIS171181, N-(2-chloro-6-methylphenyl)-2-((6-(4-(3-((2-(2,6-dioxopiperidin-3-yl)-1-oxoisoindolin-4-yl)thio)propyl)piperazin-1-yl)-2-methylpyrimidin-4-yl)amino)thiazole-5-carboxamide] | – | – | IC50 [1]: 0.09 nM
Cc1ccc(C(=O)Nc2ccc(CN3CCN(C(=O)CCSc4cccc5c4CN(C4CCC(=O)NC4=O)C5=O)CC3)c(C(F)(F)F)c2)cc1C#Cc1cnc2cccnn12 (centres unmarked) [SIAIS220052, N-(4-((4-(3-((2-(2,6-dioxopiperidin-3-yl)-1-oxoisoindolin-4-yl)thio)propanoyl)piperazin-1-yl)methyl)-3-(trifluoromethyl)phenyl)-3-(imidazo[1,2-b]pyridazin-3-ylethynyl)-4-methylbenzamide] | – | – | IC50 [1]: 2.62 nM
Cc1ccc(C(=O)Nc2ccc(CN3CCN(C(=O)CCCSc4cccc5c4C(=O)N(C4CCC(=O)NC4=O)C5=O)CC3)c(C(F)(F)F)c2)cc1C#Cc1cnc2cccnn12 (centres unmarked) [SIAIS220047, N-(4-((4-(4-((2-(2,6-dioxopiperidin-3-yl)-1,3-dioxoisoindolin-4-yl)thio)butanoyl)piperazin-1-yl)methyl)-3-(trifluoromethyl)phenyl)-3-(imidazo[1,2-b]pyridazin-3-ylethynyl)-4-methylbenzamide] | – | – | IC50 [1]: 3.23 nM
Cc1sc2c(c1C)C(c1ccc(Cl)cc1)=N[C@@H](CC(=O)NCCN1CCN(CCCCCSc3cccc4c3CN(C3CCC(=O)NC3=O)C4=O)CC1)c1nnc(C)n1-2 (stereo partly drawn) [SIAIS213133, 2-((S)-4-(4-chlorophenyl)-2,3,9-trimethyl-6H-thieno[3,2-f][1,2,4]triazolo[4,3-a][1,4]diazepin-6-yl)-N-(2-(4-(5-((2-(2,6-dioxopiperidin-3-yl)-1-oxoisoindolin-4-yl)thio)pentyl)piperazin-1-yl)ethyl)acetamide] | – | 0.036 ± 0.045 | –
Cc1sc2c(c1C)C(c1ccc(Cl)cc1)=N[C@@H](CC(=O)N1CCNCC1)c1nnc(C)n1-2 [SIAIS213113] | – | 21.6 | IC50 (MV-4-11 cells; [3]): 12.9 nM

More lines, main results first:

DC50 (ALK protein) [nM] | IC50 (MV-4-11 cells; [2]) [nM] | SMILES | further results
500 | – | COc1cc(N2CCN(C(=O)CCSc3cccc4c3C(=O)N(C3CCC(=O)NC3=O)C4=O)CC2)ccc1Nc1ncc(Cl)c(Nc2ccccc2P(C)(C)=O)n1 (centres unmarked) [SIAIS1197115, 4-((3-(4-(4-((5-chloro-4-((2-(dimethylphosphoryl)phenyl)amino)pyrimidin-2-yl)amino)-3-methoxyphenyl)piperazin-1-yl)-3-oxopropyl)thio)-2-(2,6-dioxopiperidin-3-yl)isoindoline-1,3-dione] | IC50 (SR cells): 42 ± 29.3 nM
100 to 500 | – | CCc1cc2c(cc1N1CCN(C(=O)CCCSc3cccc4c3C(=O)N(C3CCC(=O)NC3=O)C4=O)CC1)C(C)(C)c1[nH]c3cc(C#N)ccc3c1C2=O (centres unmarked) [SIAIS164070, 8-(4-(4-((2-(2,6-dioxopiperidin-3-yl)-1,3-dioxoisoindolin-4-yl)thio)butanoyl)piperazin-1-yl)-9-ethyl-6,6-dimethyl-11-oxo-6,11-dihydro-5H-benzo[b]carbazole-3-carbonitrile] | –
63 | – | CCc1cc2c(cc1N1CCN(C(=O)CCCCSc3cccc4c3C(=O)N(C3CCC(=O)NC3=O)C4=O)CC1)C(C)(C)c1[nH]c3cc(C#N)ccc3c1C2=O (centres unmarked) [SIAIS164072, 8-(4-(5-((2-(2,6-dioxopiperidin-3-yl)-1,3-dioxoisoindolin-4-yl)thio)pentanoyl)piperazin-1-yl)-9-ethyl-6,6-dimethyl-11-oxo-6,11-dihydro-5H-benzo[b]carbazole-3-carbonitrile] | –
204 | – | CCc1cc2c(cc1N1CCN(C(=O)CCCCCSc3cccc4c3C(=O)N(C3CCC(=O)NC3=O)C4=O)CC1)C(C)(C)c1[nH]c3cc(C#N)ccc3c1C2=O (centres unmarked) [SIAIS164071, 8-(4-(6-((2-(2,6-dioxopiperidin-3-yl)-1,3-dioxoisoindolin-4-yl)thio)hexanoyl)piperazin-1-yl)-9-ethyl-6,6-dimethyl-11-oxo-6,11-dihydro-5H-benzo[b]carbazole-3-carbonitrile] | –
